Laboratory results: patent US11584775B2, “C4-modified oleanolic acid derivatives for inhibition of IL-17 and other uses” (REATA PHARMACEUTICALS, INC., priority 2015, dated 2023)

Tests used:
hIL17 = assay: IL-17 release from differentiated primary human T-cells (IL-17A HTRF assay); type: cell-based; details: inhibition of IL-17A levels; primary human CD4+ T cells differentiated into Th17 cells, 46-hour incubation
In short: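 Cryopreserved primary human CD4+ T cells were activated with anti-CD3/CD28 beads and driven to Th17 with TGF-β, IL-6, IL-23 and IL-1β in the presence of compound (2-500 nM or 4-1000 nM) for 46 h at 37° C. Supernatant IL-17A was quantified by HTRF against a standard curve and normalized to DMSO. IC50s came from variable-slope fits, with viability read by CyQuant.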

human RORγ = target: T1, human RORγ (Homo sapiens, UniProt P51449); assay: RORγ assay (GAL4-RORγ hybrid luciferase reporter, inverse-agonist activity); type: cell-based; details: GAL4-RORγ hybrid reporter cells, 23 hours
T1 sequence (P51449 269-508 limits assumed): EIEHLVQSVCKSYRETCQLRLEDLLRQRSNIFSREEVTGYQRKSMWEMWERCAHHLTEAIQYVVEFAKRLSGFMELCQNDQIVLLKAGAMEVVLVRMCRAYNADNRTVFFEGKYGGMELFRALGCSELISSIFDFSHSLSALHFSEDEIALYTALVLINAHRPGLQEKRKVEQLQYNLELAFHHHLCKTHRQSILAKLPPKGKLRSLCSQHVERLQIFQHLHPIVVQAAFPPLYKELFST
In short: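 Human cell line expressing GAL4-DBD/RORγ hybrid with UAS-driven luciferase, treated in triplicate with compound (0.4–200 nM or 2–1000 nM) for 23 h at 37 °C. Luminescence normalized to DMSO; viability measured in parallel by multiplex assay. IC50 for RORγ and viability by variable-slope nonlinear regression.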

NRF2 = assay: AREc32 luciferase reporter assay; type: cell-based, human; details: EC2×: concentration required to increase GST ARE Luciferase reporter activity by 2-fold; AREc32 cells, 19 hours
In short: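 AREc32 cells (MCF-7 stably carrying eight rat GSTA2 ARE copies driving firefly luciferase) treated 19 h with compound (0.4–200 nM or 2–1000 nM), triplicate. Luminescence normalized to DMSO as fold-induction; variable-slope fit capped at 50-fold; EC2× = concentration giving 2-fold induction.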

[1] = tested on: IFNγ-induced Nitric Oxide production; assay: Nitric oxide production assay in RAW 264.7 mouse macrophages; type: cell-based; details: RAW264.7, suppression of IFNγ-induced NO production normalized to cell viability (WST-1), RAW 264.7, 24 hours IFNγ
In short: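 Cells pre-treated 2 h with compound (0.4-200 nM or 2-1000 nM) in RPMI 1640 + 0.5% FBS, then stimulated with recombinant mouse IFNγ for 24 h at 37 °C. Nitrite measured by Griess reagent, viability by WST-1; IC50 from NO suppression normalized to viability and to DMSO/IFNγ controls.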

Compound | IC50 (hIL17) [nM] | IC50 (human RORγ) [nM] | EC2x: concentration giving 2-fold induction of ARE luciferase reporter (NRF2) [nM] | IC50 [1] [nM]
Cc1nnc([C@]23CCC(C)(C)C[C@H]2[C@H]2C(=O)C=C4[C@@]5(C)C=C(C#N)C(=O)[C@@](C)(CO)[C@@H]5CC[C@@]4(C)[C@]2(C)CC3)o1 [Compound T42, (4R,4aR,6aS,6bR,8aS,12aS,12bR,14bS)-4-(hydroxymethyl)-4,6a,6b, 11,11,14b-hexamethyl-8a-(5-methyl-1,3,4-oxadiazol-2-yl)-3,13-dioxo-3,4,4a,5,6,6a,6b,7,8,8a,9,10,11,12,12a,12b,13,14b-octadecahydropicene-2-carbonitrile] | 101 | 389 | 97 | 10.4
CC(=O)OC[C@]1(C)C(=O)C(C#N)=C[C@]2(C)C3=CC(=O)[C@@H]4[C@@H]5CC(C)(C)CC[C@]5(c5nnc(C)o5)CC[C@@]4(C)[C@]3(C)CC[C@H]21 [Compound T43, ((4R,4aR,6aS,6bR,8aS,12aS,12bR,14bS)-2-cyano-4,6a,6b, 11,11,14b-hexamethyl-8a-(5-methyl-1,3,4-oxadiazol-2-yl)-3,13-dioxo-3,4,4a,5,6,6a,6b,7,8,8a,9,10,11,12,12a,12b,13,14b-octadecahydropicen-4-yl)methyl acetate] | 46 | 146 | 369 | 110
Cc1nnc([C@]23CCC(C)(C)C[C@H]2[C@H]2C(=O)C=C4[C@@]5(C)C=C(C#N)C(=O)[C@@](C)(O)[C@@H]5CC[C@@]4(C)[C@]2(C)CC3)o1 [Compound T44, (4S,4aR,6aS,6bR,8aS,12aS,12bR,14bS)-4-hydroxy-4,6a,6b, 11,11,14b-hexamethyl-8a-(5-methyl-1,3,4-oxadiazol-2-yl)-3,13-dioxo-3,4,4a,5,6,6a,6b,7,8,8a,9,10,11,12,12a,12b,13,14b-octadecahydropicene-2-carbonitrile] | 50 | 236 | 156 | 72.8
Cc1noc([C@]23CCC(C)(C)C[C@H]2[C@H]2C(=O)C=C4[C@@]5(C)C=C(C#N)C(=O)[C@@](C)(CO)[C@@H]5CC[C@@]4(C)[C@]2(C)CC3)n1 [Compound T45, (4R,4aR,6aS,6bR,8aS,12aS,12bR,14bS)-4-(hydroxymethyl)-4,6a,6b, 11,11,14b-hexamethyl-8a-(3-methyl-1,2,4-oxadiazol-5-yl)-3,13-dioxo-3,4,4a,5,6,6a,6b,7,8,8a,9,10,11,12,12a,12b,13,14b-octadecahydropicene-2-carbonitrile] | 17 | 165 | 47 | 6.9
CC(=O)OC[C@]1(C)C(=O)C(C#N)=C[C@]2(C)C3=CC(=O)[C@@H]4[C@@H]5CC(C)(C)CC[C@]5(c5nc(C)no5)CC[C@@]4(C)[C@]3(C)CC[C@H]21 [Compound T46, ((4R,4aR,6aS,6bR,8aS,12aS,12bR,14bS)-2-cyano-4,6a,6b, 11,11,14b-hexamethyl-8a-(3-methyl-1,2,4-oxadiazol-5-yl)-3,13-dioxo-3,4,4a,5,6,6a,6b,7,8,8a,9,10,11,12,12a,12b,13,14b-octadecahydropicen-4-yl)methyl acetate] | 13 | 115 | 366 | 101
Cc1noc([C@]23CCC(C)(C)C[C@H]2[C@H]2C(=O)C=C4[C@@]5(C)C=C(C#N)C(=O)[C@@](C)(O)[C@@H]5CC[C@@]4(C)[C@]2(C)CC3)n1 [Compound T47, (4S,4aR,6aS,6bR,8aS,12aS,12bR,14bS)-4-hydroxy-4,6a,6b, 11,11,14b-hexamethyl-8a-(3-methyl-1,2,4-oxadiazol-5-yl)-3,13-dioxo-3,4,4a,5,6,6a,6b,7,8,8a,9,10,11,12,12a,12b,13,14b-octadecahydropicene-2-carbonitrile] | 17 | 139 | 79 | 35.8
